The DC50 is the midpoint of the concentration-degradation curve.

The source of these data is US20240190880A1 (THE REGENTS OF THE UNIVERSITY OF MICHIGAN, priority 2021, published 2024).

Molecules are shown by their SMILES. Where only a bound is given, the exact number is not on record here.

The target of one assay is T1, ER (Homo sapiens, UniProt P03372).
T1 construct: host or cells: T47D and MCF7 human breast cancer cells
T1 sequence (P03372 1-595): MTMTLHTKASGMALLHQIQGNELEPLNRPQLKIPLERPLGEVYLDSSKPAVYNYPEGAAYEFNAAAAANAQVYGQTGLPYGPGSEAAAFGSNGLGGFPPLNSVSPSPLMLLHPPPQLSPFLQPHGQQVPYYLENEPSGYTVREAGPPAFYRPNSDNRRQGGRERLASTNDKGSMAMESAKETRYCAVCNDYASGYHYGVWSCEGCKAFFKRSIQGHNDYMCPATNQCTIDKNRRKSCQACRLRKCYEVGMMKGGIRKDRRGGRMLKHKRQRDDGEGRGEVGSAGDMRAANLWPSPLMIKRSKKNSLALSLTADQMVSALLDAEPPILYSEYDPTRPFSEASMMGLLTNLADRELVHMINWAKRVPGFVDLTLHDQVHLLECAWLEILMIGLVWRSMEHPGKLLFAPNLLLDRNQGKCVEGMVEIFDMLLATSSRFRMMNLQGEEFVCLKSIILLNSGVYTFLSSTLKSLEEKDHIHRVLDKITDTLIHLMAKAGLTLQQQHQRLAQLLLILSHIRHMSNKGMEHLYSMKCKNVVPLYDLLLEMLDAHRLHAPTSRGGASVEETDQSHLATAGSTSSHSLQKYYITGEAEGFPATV
Kind of assay: ER degradation activity, in-cell western blot analysis in T47D cells. The class given is cell-based. The conditions noted are these: 16 hours, Table A does not say which cell line (T47D or MCF7), read-out: Potency (DC50). An outline of the steps:
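Human T47D cells (DMEM, 10% FBS) are dosed for 16 h with 0.5% DMSO final and probed with 680- and 800-dye secondary antibodies. Relative ER is calculated against vehicle and untreated wells.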
Consider `O=C1CCC(N2Cc3cc4c(cc3C2=O)CN(C(=O)CN2CCC3(CC2)CCN(c2ccc([C@@H]5c6ccc(O)cc6CC[C@@H]5c5ccccc5)cc2)CC3)C4)C(=O)N1` (stereo partly drawn) [E 354, 3-(6-(2-(9-(4-((1R,2S)-6-hydroxy-2-phenyl-1,2,3,4-tetrahydronaphthalen-1-yl)phenyl)-3,9-diazaspiro[5.5]undecan-3-yl)acetyl)-1-oxo-3,5,6,7-tetrahydropyrrolo[3,4-f]isoindol-2(1H)-yl)piperidine-2,6-dione], for which the DC50 is less than 10 nM.

On to `C[C@@H]1Cc2c([nH]c3ccccc23)[C@@H](c2c(F)cc(N3CCC4(CCN(C(=O)CN5Cc6cc7c(cc6C5)C(=O)N(C5CCC(=O)NC5=O)C7)C4)C3)cc2F)N1CC(F)F` (stereo partly drawn) [E 68, 3-(6-(2-(7-(4-((1R,3R)-2-(2,2-difluoroethyl)-3-methyl-2,3,4,9-tetrahydro-1H-pyrido[3,4-b]indol-1-yl)-3,5-difluorophenyl)-2,7-diazaspiro[4.4]nonan-2-yl)-2-oxoethyl)-1-oxo-3,5,6,7-tetrahydropyrrolo[3,4-f]isoindol-2(1H)-yl)piperidine-2,6-dione], for which the DC50 lay in the range of 10 to 100 nM.

On to `O=C1CCC(N2C(=O)c3cc4c(cc3C2=O)CN(CC2CCN(C(=O)C3(F)CCN(c5ccc([C@@H]6c7ccc(O)cc7CC[C@@H]6c6ccccc6)cc5)CC3)CC2)C4)C(=O)N1` (stereo partly drawn) [E 208, 2-(2,6-dioxopiperidin-3-yl)-6-((1-(4-fluoro-1-(4-((1R,2S)-6-hydroxy-2-phenyl-1,2,3,4-tetrahydronaphthalen-1-yl)phenyl)piperidine-4-carbonyl)piperidin-4-yl)methyl)-6,7-dihydropyrrolo[3,4-f]isoindole-1,3(2H,5H)-dione], for which the DC50 is greater than 100 nM.

With `C[C@@H]1Cc2c([nH]c3ccccc23)[C@@H](c2c(F)cc(N3CC4(CCN4CC(=O)N4Cc5cc6c(cc5C4)C(=O)N(C4CCC(=O)NC4=O)C6)C3)cc2F)N1CC(F)F` (stereo partly drawn) [E 61, 3-(6-(2-(6-(4-((1R,3R)-2-(2,2-difluoroethyl)-3-methyl-2,3,4,9-tetrahydro-1H-pyrido[3,4-b]indol-1-yl)-3,5-difluorophenyl)-1,6-diazaspiro[3.3]heptan-1-yl)acetyl)-1-oxo-3,5,6,7-tetrahydropyrrolo[3,4-f]isoindol-2(1H)-yl)piperidine-2,6-dione], the DC50 was greater than 100 nM.

As to `C[C@@H]1Cc2c([nH]c3ccccc23)[C@@H](c2cnc(N3CCC(C(=O)N4CCC(N5Cc6cc7c(cc6C5)C(=O)N(C5CCC(=O)NC5=O)C7=O)CC4)CC3)nc2)N1CC(F)F` (stereo partly drawn) [E 260, 6-(1-(1-(5-((1R,3R)-2-(2,2-difluoroethyl)-3-methyl-2,3,4,9-tetrahydro-1H-pyrido[3,4-b]indol-1-yl)pyrimidin-2-yl)piperidine-4-carbonyl)piperidin-4-yl)-2-(2,6-dioxopiperidin-3-yl)-6,7-dihydropyrrolo[3,4-f]isoindole-1,3(2H,5H)-dione], the 50% degradation concentration (DC50) was less than 10 nM.

On to `O=C1CCC(N2C(=O)c3cc4c(cc3C2=O)CN(C2CCC(C(=O)NC3CN(c5ccc([C@@H]6c7ccc(O)cc7CC[C@@H]6c6ccccc6)cc5)C3)CC2)C4)C(=O)N1` (stereo partly shown) [E 336], for which the DC50 is greater than 100 nM.

Take `C[C@@H]1Cc2c([nH]c3ccccc23)[C@@H](c2c(F)cc(N3CCC(C(=O)N4CCC(N5Cc6cc7c(cc6C5)C(=O)N(C5CCC(=O)NC5=O)C7=O)CC4)CC3)cc2F)N1CC(F)F` (stereo partly drawn) [E 114, 6-(1-(1-(4-((1R,3R)-2-(2,2-difluoroethyl)-3-methyl-2,3,4,9-tetrahydro-1H-pyrido[3,4-b]indol-1-yl)-3,5-difluorophenyl)piperidine-4-carbonyl)piperidin-4-yl)-2-(2,6-dioxopiperidin-3-yl)-6,7-dihydropyrrolo[3,4-f]isoindole-1,3(2H,5H)-dione]: the 50% degradation concentration (DC50) is less than 10 nM.

On to `CCC(=C(c1ccc(O)cc1)c1ccc(N2CCC3(CC2)CN(C(=O)CN2Cc4cc5c(cc4C2)C(=O)N(C2CCC(=O)NC2=O)C5=O)C3)cc1)c1ccccc1` (stereo not shown) [E 242, 2-(2,6-dioxopiperidin-3-yl)-6-(2-(7-(4-(1-(4-hydroxyphenyl)-2-phenylbut-1-en-1-yl)phenyl)-2,7-diazaspiro[3.5]nonan-2-yl)-2-oxoethyl)-6,7-dihydropyrrolo[3,4-f]isoindole-1,3(2H,5H)-dione], for which the DC50 was 10 to 100 nM.

With `O=C1CCC(N2Cc3cc4c(cc3C2=O)CN(CC(=O)N2CCC3(CC2)CN(c2ccc([C@@H]5c6ccc(O)cc6CC[C@@H]5c5ccccc5)cc2)C3)C4)C(=O)N1` (mixture of isomers) [E 5, rac-3-(6-(2-(2-(4-((1R,2S)-6-hydroxy-2-phenyl-1,2,3,4-tetrahydronaphthalen-1-yl)phenyl)-2,7-diazaspiro[3.5]nonan-7-yl)-2-oxoethyl)-1-oxo-3,5,6,7-tetrahydropyrrolo[3,4-f]isoindol-2(1H)-yl)piperidine-2,6-dione], the 50% degradation concentration (DC50) was less than 10 nM.

Consider `C[C@@H]1Cc2c([nH]c3ccccc23)[C@@H](c2c(F)cc(N3CCC(N4CCN(CC(=O)N5Cc6cc7c(cc6C5)C(=O)N(C5CCC(=O)NC5=O)C7)CC4)CC3)cc2F)N1CC(F)F` (stereo partly drawn) [E 96, 3-(6-(2-(4-(1-(4-((1R,3R)-2-(2,2-difluoroethyl)-3-methyl-2,3,4,9-tetrahydro-1H-pyrido[3,4-b]indol-1-yl)-3,5-difluorophenyl)piperidin-4-yl)piperazin-1-yl)acetyl)-1-oxo-3,5,6,7-tetrahydropyrrolo[3,4-f]isoindol-2(1H)-yl)piperidine-2,6-dione], for which the DC50 was less than 10 nM.

With `O=C1CCC(N2C(=O)c3cc4c(cc3C2=O)CN(C(=O)[C@H]2CC[C@H](N3CC(Nc5ccc([C@H]6c7ccc(O)cc7CC[C@H]6c6ccccc6)cc5)C3)CC2)C4)C(=O)N1` (stereo partly drawn) [E 390, 2-(2,6-dioxopiperidin-3-yl)-6-((1S,4r)-4-(3-((4-((1S,2R)-6-hydroxy-2-phenyl-1,2,3,4-tetrahydronaphthalen-1-yl)phenyl)amino)azetidin-1-yl)cyclohexane-1-carbonyl)-6,7-dihydropyrrolo[3,4-f]isoindole-1,3(2H,5H)-dione], the DC50 was in the range of 10 to 100 nM.

Turning to `O=C1CCC(N2Cc3cc4c(cc3C2=O)CN(C2CCN(CC3CN(c5ccc([C@H]6c7ccc(O)cc7CC[C@H]6c6ccc(F)cc6)cc5)C3)CC2)C4)C(=O)N1` (stereo partly drawn) [E 279, 3-(6-(1-((1-(4-((1S,2R)-2-(4-fluorophenyl)-6-hydroxy-1,2,3,4-tetrahydronaphthalen-1-yl)phenyl)azetidin-3-yl)methyl)piperidin-4-yl)-1-oxo-3,5,6,7-tetrahydropyrrolo[3,4-f]isoindol-2(1H)-yl)piperidine-2,6-dione], the DC50 lay within 10 to 100 nM.

With `C[C@@H]1Cc2c([nH]c3ccccc23)[C@@H](c2c(F)cc(N3CCC(N4CCC(CC(=O)N5Cc6cc7c(cc6C5)C(=O)N(C5CCC(=O)NC5=O)C7)CC4)CC3)cc2F)N1CC(F)F` (stereo partly drawn) [E 94, 3-(6-(2-(1′-(4-((1R,3R)-2-(2,2-difluoroethyl)-3-methyl-2,3,4,9-tetrahydro-1H-pyrido[3,4-b]indol-1-yl)-3,5-difluorophenyl)-[1,4′-bipiperidin]-4-yl)acetyl)-1-oxo-3,5,6,7-tetrahydropyrrolo[3,4-f]isoindol-2(1H)-yl)piperidine-2,6-dione], the half-maximal degradation concentration (DC50) is less than 10 nM.

As to `C[C@@H]1Cc2c([nH]c3ccccc23)[C@@H](c2c(F)cc(N3CCC(C(=O)N4CCC(CN5Cc6cc7c(cc6C5)C(=O)N(C5CCC(=O)NC5=O)C7=O)CC4)CC3)cc2F)N1CC(F)F` (stereo partly drawn) [E 233, 6-((1-(1-(4-((1R,3R)-2-(2,2-difluoroethyl)-3-methyl-2,3,4,9-tetrahydro-1H-pyrido[3,4-b]indol-1-yl)-3,5-difluorophenyl)piperidine-4-carbonyl)piperidin-4-yl)methyl)-2-(2,6-dioxopiperidin-3-yl)-6,7-dihydropyrrolo[3,4-f]isoindole-1,3(2H,5H)-dione], the DC50 is greater than 100 nM.

Still in this assay, the particulars now being: compounds 16 hours, Table A does not say whether T47D or MCF7, read-out: Potency (DC50).
Regarding `COc1cc(N2CCC3(CCN(C(=O)CN4Cc5cc6c(cc5C4)C(=O)N(C4CCC(=O)NC4=O)C6=O)CC3)CC2)ccc1[C@@H]1c2[nH]c3ccccc3c2C[C@@H](C)N1CC(C)(C)F` (stereo partly drawn) [E 514, 2-(2,6-dioxopiperidin-3-yl)-6-(2-(9-(4-((1R,3R)-2-(2-fluoro-2-methylpropyl)-3-methyl-2,3,4,9-tetrahydro-1H-pyrido[3,4-b]indol-1-yl)-3-methoxyphenyl)-3,9-diazaspiro[5.5]undecan-3-yl)-2-oxoethyl)-6,7-dihydropyrrolo[3,4-f]isoindole-1,3(2H,5H)-dione], the DC50 was in the range of 10 to 100 nM.

In the case of `CN(c1ccc([C@@H]2c3ccc(O)cc3CC[C@@H]2c2ccccc2)cc1)C1CN(C[C@H]2CC[C@H](C(=O)N3Cc4cc5c(cc4C3)C(=O)N(C3CCC(=O)NC3=O)C5=O)CC2)C1` (stereo partly drawn) [E 398, 2-(2,6-dioxopiperidin-3-yl)-6-((1R,4r)-4-((3-((4-((1R,2S)-6-hydroxy-2-phenyl-1,2,3,4-tetrahydronaphthalen-1-yl)phenyl)(methyl)amino)azetidin-1-yl)methyl)cyclohexane-1-carbonyl)-6,7-dihydropyrrolo[3,4-f]isoindole-1,3(2H,5H)-dione], the half-maximal degradation concentration (DC50) was greater than 100 nM.
